Marks after values point to notes of the source that are not given here.
Key:
Type in all cases: in vivo
Wistar rats = experiment: Anti-inflammatory activity, carrageenin induced paw edema (plethysmometer); conditions: for % Increase in Paw volume 1 HR: 1 HR after carrageenan, oral, racemate 2400 mg, isomers 1200 mg human daily dose extrapolated to rats, Indomethacin 15 mg/kg, diclofenac 10 mg/kg; for % Increase in Paw volume 2 HR: 2 HR after carrageenan; for % Increase in Paw volume 2 HR / % Increase in Paw volume 3 HR / % Increase in Paw volume 5 HR: doses as E46; for % Increase in Paw volume 3 HR: 3 HR after carrageenan; for % Increase in Paw volume 5 HR: 5 HR after carrageenan
Experimental: Further, the investigations were carried out to determine the anti-inflammatory activities of the molecule of the present invention. Wistar rats weighing between 160-210 gm were divided into 6 groups of 10 animals each. Group I served as control (Placebo) and receive CMC and Group II & III received anti-inflammatory control (positive control) (Diclofenac & Indomethacin respectively). Group IV to VI were treated orally with test formulations. After 15 min. of drug administration, inflammation was induced by injecting 0.1 ml of freshly prepared 1% carrageenin (in normal saline) into the left hind paw of the rat. The paw volume of the […] was measured by measuring the displace fluid in other hand of plethysmometer.
Indomethacin (15 mg/kg and declofenac (10 mg/kg) was used as reference product. Percent increased in rat paw edema was measured and compare to normal control at each time intervals.
The antiinflammatory activity was assessed plethysmographically using following time points after the administration of carrageenan, 1 hr, 2 hrs, 3 hrs and 5 hrs.

swiss albino mice [1] = experiment: Analgesic activity, acetic acid induced writhing method
Experimental: The objective of the study was to evaluate the analgesic activity of the tested formulations of the compounds of the present invention. The test was conducted in Swiss albino mice using acetic acid induced writhing method. A total of 78 pre-screened mice (showing writhing response within 10 minutes*) were divided into 6 groups of 13 animals (6 males+7 females) each. The animals showing no writhing response within 10 mins were excluded. Diclofenac and pentazocine were used as positive controls. The formulations were given orally to the different groups of animals and the number of writhes counted for a period of 15 minutes, after the onset of writhes. If the onset of writhes occurred 30 after 10 minutes the number of writhes was recorded as V. The time of onset of writhes was recorded for each animal.
The control group received 1% gum acacia. The Groups 2, 3, and 4 received the formulations viz: Phen 2; Phen 3 and Phen 4 respectively. Diclofenac and pentazocine were used as positive control and given to groups 5 and 6 respectively. Diclofenac, a potent analgesic & anti-inflammatory agent; and 5 pentazocine an opoid analgesic were selected for comparative evaluation of test formulations. Both these drugs were administered to different groups of animals at the dose of 2 mg/kg. The group 1 (Phen 1) served as—Ve Control group in the study. Phen 5 (Diclofenac—2 mg/kg) and Positive Control: Phen 6 (Pentazocine 2 mg/kg) served as positive controls.
Human daily dose of 2400 mg (800 mg×3 times) was extrapolated to mice for Phen3 and human daily dose of 1200 mg (400 mg×3 times) was extrapolated to mice for Phen2 and Phen 4. The numbers of writhes observed are given below in Table 4 for each formulation.
Further, the evaluation of analgesic activity was carried out using variable dosage forms with different groups. A total of 100 animals (50 males+50 females) were selected randomly and distributed into ten main groups with 10 animals per group (5 M+5 F). Human daily dose of 2400 mg (800 mg×3 times) was extrapolated to mice for Phen 3 (Phenyramidol Racemic (Hydrochloride) and human daily dose of 1200 mg (400 mg×3 times), 1800 mg (400 mg×4.5 times), 2000 mg (400 mg×5 times) & 2400 mg (400 mg×6 times) was extrapolated to mice for Phen2 and Phen4 groups.
The control group 1 received 1% gum acacia and served as negative control group. Groups 2, 3, 4 & 5 received the formulation Phen2. Groups 6, 7, 8 & 9 received the formulation Phen 4 (Isomer 2) & Group 10 received the formulation Phen 3 (Racemic).
Further, one more experiment was done with phenyramidol hydrochloride to evaluate the analgesic activity at lesser dosage levels using acetic acid induced method. A total of 50 animals (25 males+25 females) were selected and randomly distributed into five main groups with 10 animals per group (5 M+5 F). 5 Human daily dose of 600 mg (400×1.5 times) & 1200 mg (800 mg×1.5 times) was extrapolated to mice for Phen 3 (Racemic) and human daily dose of 600 mg (400 mg×1.5 times) was extrapolated to mice for (−) Phenyramidol Hydrochloride & (+) Phenyramidol Hydrochloride and the results are discussed in Table 6.

rats = experiment: Anti-arthritic activity, thickness of joint of right paw after injection of formalin; conditions: for Thickness of Joint (in cm) 0 hr: 0 hr (initial); for Thickness of Joint (in cm) 0 hr / Thickness of Joint (in cm) 2 hr: Phen 3 2400 mg, Phen 2 and Phen 4 1200 mg human daily dose extrapolated to rats, Diclofenac sodium 2 mg/Kg; for Thickness of Joint (in cm) 2 hr: 2 hr after formalin; for Thickness of Joint (in cm) 4 hr: 4 hr after formalin; for Thickness of Joint (in cm) 4 hr / Thickness of Joint (in cm) 8 hr / Thickness of Joint (in cm) 24 hr / Thickness of Joint (in cm) 48 hr / Thickness of Joint (in cm) 72 hr: doses as E38; for Thickness of Joint (in cm) 8 hr: 8 hr after formalin; for Thickness of Joint (in cm) 24 hr: 24 hr after formalin; for Thickness of Joint (in cm) 48 hr: 48 hr after formalin; for Thickness of Joint (in cm) 72 hr: 72 hr after formalin; for difference from normal control in thickness of the joint: at 2 hr, One Way ANOVA followed by Dunnett's Test; for Anti-arthritic activity (conclusion): formalin model, FIG. 18
Experimental: The anti-arthritic activity was assessed using following time points after the injection of formalin 2 hrs, 4 hrs, 8 hrs, 24 hrs, 48 hrs and 72 hrs. The control group (group 1) received 1% gum acacia. The Groups 2, 3, and 4 received the formulations viz: Phen 2, Phen 3 and Phen 4 respectively. Diclofenac was used as positive control and given to group 5. Human daily dose of 2400 mg (800 mg×3 times) was extrapolated to rats for 5 (racemate) Phen 3 and human daily dose of 1200 mg (400 mg×3 times) was extrapolated to rats for (isomer 1) Phen 2 and (isomer 2) Phen 4. Diclofenac sodium 2 mg/Kg was used as reference product.
Initial or 0 hr thickness of the joint of right paw of each animal was recorded. The thickness of the joint was measured using Vernier calipers at different time intervals after the injection of formalin. These efficacy variables were assessed at six time points 2 hrs, 4 hrs, 8 hrs, 24 hrs, 48 hrs and 72 hrs for each and every animal.

mice = experiment: Central analgesic activity, tail flick analgesiometer
swiss albino mice [2] = experiment: Skeletal muscle relaxant activity, Rota rod apparatus, first experiment (oxalate salts, dose groups); conditions: at the doses mentioned
Experimental: The evaluation of skeletal muscle relaxant activity of the formulations containing phenyramidol racemic, dextro and laevo isomers of oxalate salts in swiss albino mice were carried out using Rota rod apparatus. Each animal was trained only once per day for 5 days. […] Mouse was placed on rota rod only when it achieved the speed of 25 rpm. The ‘fall off time’ in seconds was noted down when the mouse falls from rotating rod. Endurance time was measured up to 120 seconds. The skeletal muscle relaxant activity was assessed using 0 hr, 1 hr, 2 hrs, 4 hrs and 6 hrs time points after the dose administration. A total of 100 mice were selected and randomly distributed into ten main groups with 10 animals per group.
Control group receiving only vehicle served as a placebo in the study.
The test formulations were administered by oral route through gavage tube.(p.o.).
Two efficacy variables were assessed during the experiment: 1. Percent animal falling from the rod was noted; 2. Endurance Time (ET): The time taken for a mouse to fall from the rod was taken as endurance time. […] These efficacy variables were assessed at five time points 0 hr, 1 hr, 2 hr, 4 hr, and 6 hr for each and every animal.

[3] = Table 4, oral, writhes counted 15 minutes, Phen3 human daily dose 2400 mg, Phen2 and Phen 4 1200 mg extrapolated to mice, Diclofenac and Pentazocine 2 mg/kg
[4] = Table 5, dose 1200 mg (human daily dose extrapolated to mice), mean ± SD, n = 10
[5] = Table 5, dose 1800 mg (human daily dose extrapolated to mice), mean ± SD, n = 10
[6] = Table 5, dose 2000 mg (human daily dose extrapolated to mice), mean ± SD, n = 10
[7] = Table 5, dose 2400 mg (human daily dose extrapolated to mice), mean ± SD, n = 10
[8] = experiment of Table 5 (variable doses)
[9] = Table 6, dose 600 mg (human daily dose extrapolated to mice), mean ± SD, n = 10
[10] = experiment of Table 6, lesser dosage levels
[11] = 1 hr. after dose, human daily dose 2400 mg or 1200 mg extrapolated to mice, cut-off 10-12 seconds
[12] = 4 hr. after dose, human daily dose 2400 mg or 1200 mg extrapolated to mice, cut-off 10-12 seconds

SMILES | % Increase in Paw volume 1 HR (Wistar rats) | % Increase in Paw volume 2 HR (Wistar rats) | % Increase in Paw volume 3 HR (Wistar rats) | % Increase in Paw volume 5 HR (Wistar rats) | Average no. of writhes (swiss albino mice [1]; [3]) | Average no. of writhes (swiss albino mice [1]; [7]) | analgesic activity by decrease in the number of writhes induced by acetic acid (swiss albino mice [1]; experiment of Table 4) | analgesic activity by decrease in the number of writhes induced by acetic acid (swiss albino mice [1]; [8]) | Thickness of Joint (in cm) 0 hr (rats) | Thickness of Joint (in cm) 2 hr (rats) | Thickness of Joint (in cm) 4 hr (rats) | Thickness of Joint (in cm) 8 hr (rats) | Thickness of Joint (in cm) 24 hr (rats) | Thickness of Joint (in cm) 48 hr (rats) | Thickness of Joint (in cm) 72 hr (rats) | Tail Flick Reaction Time (Sec.) 1 hr. (mice; mouse, in vivo) | Tail Flick Reaction Time (Sec.) 4 hr. (mice; mouse, in vivo) | further results
O=C(O)C(=O)O.O[C@@H](CNc1ccccn1)c1ccccc1 [Phen 4, (R)-Phenyramidol Oxalate] | 25.37 ± 10.44% | 39.90 ± 6.12% | 68.36 ± 22.20% | 49.65 ± 19.03% | 12.08 ± 4.21* | 4.50 ± 5.19* | significant analgesic activity | significant analgesic activity | 0.49 ± 0.04 cm | 0.56 ± 0.05 cm | 0.56 ± 0.05 cm | 0.62 ± 0.03 cm | 0.55 ± 0.05 cm | 0.53 ± 0.04 cm | 0.51 ± 0.03 cm | 2.87 ± 1.071 s | 3.18 ± 1.540 s | Average no. of writhes (swiss albino mice [1]; [4]): 10.50 ± 6.65*; Average no. of writhes (swiss albino mice [1]; [5]): 6.20 ± 5.39*; Average no. of writhes (swiss albino mice [1]; [6]): 6.00 ± 6.41*; difference from normal control in thickness of the joint (rats): significant difference (p<0.05); Anti-arthritic activity (conclusion) (rats): exhibits Anti-arthritic activity; Anti-arthritic activity (conclusion) (rats; listed as Phen4): significant anti-arthritic activity
O=C(O)C(=O)O.O[C@H](CNc1ccccn1)c1ccccc1 [Phen 2, (S)-Phenyramidol Oxalate] | 25.82 ± 11.67% | 40.57 ± 10.07% | 66.59 ± 20.88% | 48.71 ± 15.16% | 13.08 ± 9.93* | 6.00 ± 5.66* | significant analgesic activity | significant analgesic activity | 0.45 ± 0.06 cm | 0.59 ± 0.03 cm | 0.56 ± 0.04 cm | 0.60 ± 0.06 cm | 0.54 ± 0.05 cm | 0.52 ± 0.04 cm | 0.50 ± 0.03 cm | 4.31 ± 1.754 s | 2.46 ± 0.591 s | Average no. of writhes (swiss albino mice [1]; [4]): 11.90 ± 8.43*; Average no. of writhes (swiss albino mice [1]; [5]): 8.80 ± 6.78*; Average no. of writhes (swiss albino mice [1]; [6]): 8.20 ± 7.30*; skeletal muscle relaxant activity (conclusion) (swiss albino mice [2]): exhibit skeletal muscle relaxant activity
COc1ccc2c(c1)c(CC(=O)O)c(C)n2C(=O)c1ccc(Cl)cc1 [Indomethacin] | 18.58 ± 11.38% | 31.27 ± 4.75 % | 41.42 ± 12.54 % | 28.86 ± 8.22 % |  |  |  |  |  |  |  |  |  |  |  |  |  | 
OC(CNc1ccccn1)c1ccccc1 (racemic) [Phen 3, 2-(β-hydroxyphenethylamino) pyridine, reference compound] | 24.15 ± 7.27% | 44.73 ± 6.56% | 61.40 ± 18.21% | 47.13 ± 19.14% | 3.54 ± 3.95* | 4.20 ± 3.77* | significant analgesic activity | significant analgesic activity | 0.48 ± 0.04 cm | 0.59 ± 0.03 cm | 0.59 ± 0.04 cm | 0.62 ± 0.06 cm | 0.52 ± 0.05 cm | 0.54 ± 0.05 cm | 0.55 ± 0.05 cm |  |  | Average no. of writhes (swiss albino mice [1]; [9]): 5.90 ± 6.14*; Average no. of writhes (swiss albino mice [1]; Table 6, dose 1200 mg (human daily dose extrapolated to mice), mean ± SD, n = 10): 1.50 ± 2.59*; analgesic activity by decrease in the number of writhes induced by acetic acid (swiss albino mice [1]; [10]): significant analgesic activity; Tail Flick Reaction Time (Sec.) 1 hr. (mice; [11]): 4.86 ± 3.023 s; Tail Flick Reaction Time (Sec.) 4 hr. (mice; [12]): 5.055 ± 2.735 s; analgesic activity (tail flick latency compared to control) (mice; at 4 hr after dose administration): significant analgesic activity
CC(C)=CCN1CCC2(C)c3cc(O)ccc3CC1C2C (stereo not drawn) [Pentazocine] |  |  |  |  | 10.62 ± 9.47* |  |  |  |  |  |  |  |  |  |  | 3.0 ± 0.7055 s | 3.0 ± 0.7055 s | 
Cl.O[C@@H](CNc1ccccn1)c1ccccc1 [(−) Phenyramidol Hydrochloride, (R)-Phenyramidol Hydrochloride Salt] |  |  |  |  |  |  |  |  |  |  |  |  |  |  |  |  |  | Average no. of writhes (swiss albino mice [1]; [9]): 3.20 ± 4.16*; analgesic activity (summary statement) (swiss albino mice [1]; confirmed by an acetic acid induced writhing method): enhanced analgesic activity; analgesic activity by decrease in the number of writhes induced by acetic acid (swiss albino mice [1]; [10]): significant analgesic activity
O=C(O)Cc1ccccc1Nc1c(Cl)cccc1Cl [Diclofenac, reference compound] | 15.77 ± 13.94% | 33.39 ± 7.35 % | 43.03 ± 15.41 % | 30.44 ± 9.52% | 4.08 ± 6.32* |  |  |  | 0.49 ± 0.04 cm | 0.56 ± 0.04 cm | 0.56 ± 0.04 cm | 0.62 ± 0.03 cm | 0.54 ± 0.05 cm | 0.53 ± 0.05 cm | 0.51 ± 0.03 cm |  |  | difference from normal control in thickness of the joint (rats): significant decrease in the thickness of the joint; Tail Flick Reaction Time (Sec.) 1 hr. (mice; [11]): 3.41 ± 1.421 s; Tail Flick Reaction Time (Sec.) 4 hr. (mice; [12]): 2.48 ± 0.654 s
